Assay results taken from patent US5241047A, “Synthetic peptides and mixtures thereof for detecting HIV antibodies” (BioChem Pharma Inc., priority 1990, dated 1993).
Positions of bridges follow the written chain, without caps; N, C: chain ends. Residues, ends and D or L forms follow the SMILES beside them.

Experiments:
HIV-2 antibodies = experiment: ELISA with peptide-coated wells, HIV-2 seropositive plasma pool serially diluted; format: binding, human; conditions: Test 314
Procedure: (§1) A preferred convenient and classical technique for the determination of antibodies against HIV-1 or HIV-2 using a peptide or a peptide mixture of the present invention is an enzyme-linked immunosorbent assay (ELISA). In this assay, for example, a peptide, peptide mixture or combination of the present invention is adsorbed onto, or covalently coupled to, the wells of a microtiter plate. The wells are then treated with the sera or analyte to be tested. After washing, antihuman IgG or antihuman IgM labeled with peroxidase is added to the wells. The determination of the peroxidase is performed with a corresponding substrate, e.g., with o-phenylene diamine. Without departing from the usefulness of the illustrative assay, the peroxidase can be exchanged by another label, e.g., by a radioactive, fluorescence chemiluminescence or infrared emitting label.
(§2) O.D. Values were obtained at 450 nm and the blank values measured with the sample dilution buffer were not subtracted.
(§3) Samples NEIA-2*2, BBI-1-162 to 168, 87B140, 87L139, 87V103 are all negative for HIV antibodies. Sample LSPQ-S9-1 is an early seroconverter (HIV-1). The series labeled CAP-113 to CAP-120 corresponds to a pool of seven HIV-1 positive plasma samples serially diluted with an HIV-negative plasma. CAP-113 is the pool diluted 50-fold with the HIV-negative plasma; CAP-114 is diluted 100-fold; CAP-115 is diluted 200-fold; etc. Similarly, the series labeled CAP-222 to CAP-230 corresponds to a pool of seven HIV-2 confirmed seropositive plasma samples. CAP-222 is diluted by 50 with an HIV-negative plasma; CAP-223 by 100; etc. Before the assay is done, each sample, including the CAP-series, is further diluted by 50 with the sample dilution buffer. In these tests, the cut-off for seropositivity is defined as the sum of the O.D. value for sample NEIA-2*2 plus 0.100.
(§4) Each well of the microtiter plate is saturated with 100 μl of a solution containing a peptide or mixture of peptides (5 μg/ml) and left overnight. The wells are emptied and washed twice with a washing buffer (Tris, 0.043M; NaCl, 0.5M; thimerosal, 0.01% w/v; Tween 20, 0.05% v/v; pH 7.4). The wells are then saturated with 0.35 ml of washing buffer for 1 hr. at 37° C. and washed once with the same buffer. Serum samples to be analyzed are diluted with specimen buffer (washing buffer plus casein, 0.05% w/v). The wells are rinsed with washing buffer prior to the addition of the diluted serum sample (0.1 ml). These are left to incubate for 1 hr. at room temperature. The wells are then emptied, washed twice rapidly and then once for two minutes with washing buffer. […] The wells are then emptied and washed twice rapidly with washing buffer and then five times in which the buffer was in contact with the well 2 minutes per washing. The substrate solution (3,3',5,5'-tetramethylbenzidine, 8 mg per ml of DMSO) is diluted with 100 volumes 0.1M citrate-acetate buffer, pH 5.6 containing 0.1% v/v of 30% H2 O2 and added to each well (0.1 ml per well). After 10 minutes the contents of each well is treated with 0.1 ml 2N H2 SO4 and the optical density read at 450 nm. All determinations are done in duplicate.
(§5) Peptide cocktails were prepared by mixing together equal volumes of two peptide solutions each at 10 ug/ml. One cocktail used peptides BCH-87c and BCH-202c and the other cocktail was a mixture of BCH-87ck and BCH-202ck. Each cocktail was used to coat two series of plates as described earlier.

HIV antibodies = experiment: ELISA with peptide-coated wells, samples negative for HIV antibodies or not described; format: binding, human
Procedure: as §1, §2, §3, §4, §5

HIV-1 antibodies [1] = experiment: ELISA with peptide-coated wells, HIV-1 antibody positive samples (diluted plasma pool, seroconversion samples); format: binding, human
Procedure: as §1, §2, §3
as §4, with “duplicate. […]” for “duplicate.”

HIV-1 antibodies [2] = conditions: cited from earlier work
[3] = sample CAP-223 (HIV-2 positive pool diluted by 100)
[4] = sample CAP-224 (HIV-2 positive pool, serial dilution)
[5] = sample CAP-225 (HIV-2 positive pool, serial dilution)
[6] = sample CAP-226 (HIV-2 positive pool, serial dilution)
[7] = sample CAP-227 (HIV-2 positive pool, serial dilution)
[8] = sample CAP-228 (HIV-2 positive pool, serial dilution)
[9] = sample CAP-230 (HIV-2 positive pool, serial dilution)
[10] = Test 314, sample BBI-1-162 (negative for HIV antibodies)
[11] = Test 314, sample BBI-1-169 (not described)
[12] = Test 314, sample BBI-1-172 (not described)
[13] = Test 314, sample NEIA-2*2 (negative for HIV antibodies)
[14] = Test 350, sample 2-87-L-139 (negative for HIV antibodies)
[15] = Test 350, sample 2-87-V-103 (negative for HIV antibodies)
[16] = Test 350, sample 89-D-307 (not described)
[17] = Test 350, sample NEIA-2*2 (negative for HIV antibodies)
[18] = Test 314, sample CAP-113 (HIV-1 positive plasma pool diluted 50-fold)
[19] = Test 314, sample CAP-114 (HIV-1 positive pool diluted 100-fold)
[20] = Test 314, sample CAP-115 (HIV-1 positive pool diluted 200-fold)
[21] = Test 314, sample CAP-116 (HIV-1 positive pool, serial dilution)
[22] = Test 314, sample CAP-117 (HIV-1 positive pool, serial dilution)
[23] = Test 314, sample CAP-118 (HIV-1 positive pool, serial dilution)
[24] = Test 314, sample CAP-119 (HIV-1 positive pool, serial dilution)
[25] = Test 314, sample CAP-120 (HIV-1 positive pool, serial dilution)
[26] = Test 350, sample CAP-10 (progressively higher dilutions)
[27] = Test 350, sample CAP-11 (progressively higher dilutions)
[28] = Test 350, sample CAP-12 (progressively higher dilutions)
[29] = Test 350, sample CAP-13 (progressively higher dilutions)
[30] = Test 350, sample CAP-14 (progressively higher dilutions)
[31] = Test 350, sample CAP-15 (progressively higher dilutions)
[32] = Test 350, sample CAP-16 (progressively higher dilutions)
[33] = Test 350, sample CAP-17 (progressively higher dilutions)
[34] = Test 350, sample CAP-18 (progressively higher dilutions)
[35] = Test 350, sample CAP-19 (progressively higher dilutions)

## CC[C@H](C)[C@H](NC(=O)CNC(=O)[C@H](CC(C)C)NC(=O)[C@H](CC(C)C)NC(=O)[C@H](CCC(N)=O)NC(=O)[C@H](CCC(N)=O)NC(=O)[C@H](CC(=O)O)NC(=O)[C@H](CCCCN)NC(=O)[C@H](CC(C)C)NC(=O)[C@H](Cc1ccc(O)cc1)NC(=O)[C@H](CCCNC(=N)N)NC(=O)[C@H](CCC(=O)O)NC(=O)[C@@H](NC(=O)[C@H](C)NC(=O)[C@H](CC(C)C)NC(=O)[C@@H](NC(=O)[C@@H](N)CCCCN)[C@@H](C)CC)C(C)C)C(=O)N[C@@H](Cc1c[nH]c2ccccc12)C(=O)NCC(=O)N[C@H]1CSSC[C@@H](C(=O)N[C@H](C(=O)N[C@H](C(=O)N[C@@H](C)C(=O)N[C@H](C(=O)N2CCC[C@H]2C(=O)N[C@@H](Cc2c[nH]c3ccccc23)C(=O)N[C@@H](CC(N)=O)C(=O)N[C@@H](C)C(=O)N[C@@H](CO)C(=O)O)C(C)C)[C@@H](C)O)[C@@H](C)O)NC(=O)[C@H]([C@@H](C)CC)NC(=O)[C@H](CC(C)C)NC(=O)[C@H](CCCCN)NC(=O)CNC(=O)[C@H](CO)NC1=O [BCH-87ck] (H-KILAVERYLKDQQLLGIWGCSGKLICTTAVPWNAS-OH; disulfide 20-26)
HIV-2 antibodies; sample CAP-222 (HIV-2 positive plasma pool diluted by 50)
  O.D. 450 nm: 0.069
HIV-2 antibodies; [3]
  O.D. 450 nm: 0.060
HIV-2 antibodies; [4]
  O.D. 450 nm: 0.054
HIV-2 antibodies; [5]
  O.D. 450 nm: 0.050
HIV-2 antibodies; [6]
  O.D. 450 nm: 0.050
HIV-2 antibodies; [7]
  O.D. 450 nm: 0.043
HIV-2 antibodies; [8]
  O.D. 450 nm: 0.042
HIV-2 antibodies; [9]
  O.D. 450 nm: 0.049
HIV antibodies; [10]
  O.D. 450 nm: 0.015
HIV antibodies; [11]
  O.D. 450 nm: 0.090
HIV antibodies; [12]
  O.D. 450 nm: 0.019
HIV antibodies; [13]
  O.D. 450 nm: 0.050
HIV antibodies; [14]
  O.D. 450 nm: 0.409
HIV antibodies; [15]
  O.D. 450 nm: 0.015
HIV antibodies; [16]
  O.D. 450 nm: 0.022
HIV antibodies; [17]
  O.D. 450 nm: 0.034
HIV-1 antibodies [1]; [18]
  O.D. 450 nm: > 2.8
HIV-1 antibodies [1]; [19]
  O.D. 450 nm: > 2.8
HIV-1 antibodies [1]; [20]
  O.D. 450 nm: 2.593
HIV-1 antibodies [1]; [21]
  O.D. 450 nm: 1.871
HIV-1 antibodies [1]; [22]
  O.D. 450 nm: 1.158
HIV-1 antibodies [1]; [23]
  O.D. 450 nm: 0.679
HIV-1 antibodies [1]; [24]
  O.D. 450 nm: 0.392
HIV-1 antibodies [1]; [25]
  O.D. 450 nm: 0.229
HIV-1 antibodies [1]; [26]
  O.D. 450 nm: > 2.8
HIV-1 antibodies [1]; [27]
  O.D. 450 nm: > 2.8
HIV-1 antibodies [1]; [28]
  O.D. 450 nm: 2.735
HIV-1 antibodies [1]; [29]
  O.D. 450 nm: 1.676
HIV-1 antibodies [1]; [30]
  O.D. 450 nm: 1.089
HIV-1 antibodies [1]; [31]
  O.D. 450 nm: 0.643
HIV-1 antibodies [1]; [32]
  O.D. 450 nm: 0.274
HIV-1 antibodies [1]; [33]
  O.D. 450 nm: 0.191
HIV-1 antibodies [1]; [34]
  O.D. 450 nm: 0.114
HIV-1 antibodies [1]; [35]
  O.D. 450 nm: 0.053

## CC[C@H](C)[C@H](NC(=O)CNC(=O)[C@H](CC(C)C)NC(=O)[C@H](CC(C)C)NC(=O)[C@H](CCC(N)=O)NC(=O)[C@H](CCC(N)=O)NC(=O)[C@H](CC(=O)O)NC(=O)[C@H](CCCCN)NC(=O)[C@H](CC(C)C)NC(=O)[C@H](Cc1ccc(O)cc1)NC(=O)[C@H](CCCNC(=N)N)NC(=O)[C@H](CCC(=O)O)NC(=O)[C@@H](NC(=O)[C@H](C)NC(=O)[C@H](CC(C)C)NC(=O)[C@@H](NC(=O)[C@H](CCCCN)NC(=O)[C@@H](N)CCCCN)[C@@H](C)CC)C(C)C)C(=O)N[C@@H](Cc1c[nH]c2ccccc12)C(=O)NCC(=O)N[C@H]1CSSC[C@@H](C(=O)N[C@H](C(=O)N[C@H](C(=O)N[C@@H](C)C(=O)N[C@H](C(=O)N2CCC[C@H]2C(=O)N[C@@H](Cc2c[nH]c3ccccc23)C(=O)N[C@@H](CC(N)=O)C(=O)N[C@@H](C)C(=O)N[C@@H](CO)C(=O)O)C(C)C)[C@@H](C)O)[C@@H](C)O)NC(=O)[C@H]([C@@H](C)CC)NC(=O)[C@H](CC(C)C)NC(=O)[C@H](CCCCN)NC(=O)CNC(=O)[C@H](CO)NC1=O [BCH-266] (H-KKILAVERYLKDQQLLGIWGCSGKLICTTAVPWNAS-OH; disulfide 21-27)
HIV-2 antibodies; [3]
  O.D. 450 nm: 0.075
HIV-2 antibodies; [4]
  O.D. 450 nm: 0.084
HIV-2 antibodies; [5]
  O.D. 450 nm: 0.135
HIV-2 antibodies; [6]
  O.D. 450 nm: 0.140
HIV-2 antibodies; [7]
  O.D. 450 nm: 0.085
HIV-2 antibodies; [8]
  O.D. 450 nm: 0.091
HIV-2 antibodies; [9]
  O.D. 450 nm: 0.123
HIV antibodies; [10]
  O.D. 450 nm: 0.028
HIV antibodies; [11]
  O.D. 450 nm: 0.138
HIV antibodies; [12]
  O.D. 450 nm: 0.030
HIV antibodies; [13]
  O.D. 450 nm: 0.069
HIV antibodies; [14]
  O.D. 450 nm: 0.147
HIV antibodies; [15]
  O.D. 450 nm: 0.020
HIV antibodies; [16]
  O.D. 450 nm: 0.030
HIV antibodies; [17]
  O.D. 450 nm: 0.023
HIV-1 antibodies [1]; [18]
  O.D. 450 nm: > 2.8
HIV-1 antibodies [1]; [19]
  O.D. 450 nm: > 2.8
HIV-1 antibodies [1]; [20]
  O.D. 450 nm: > 2.8
HIV-1 antibodies [1]; [21]
  O.D. 450 nm: 2.376
HIV-1 antibodies [1]; [22]
  O.D. 450 nm: 1.569
HIV-1 antibodies [1]; [23]
  O.D. 450 nm: 0.934
HIV-1 antibodies [1]; [24]
  O.D. 450 nm: 0.567
HIV-1 antibodies [1]; [25]
  O.D. 450 nm: 0.376
HIV-1 antibodies [1]; [26]
  O.D. 450 nm: > 2.8
HIV-1 antibodies [1]; [27]
  O.D. 450 nm: > 2.8
HIV-1 antibodies [1]; [28]
  O.D. 450 nm: > 2.8
HIV-1 antibodies [1]; [29]
  O.D. 450 nm: 2.021
HIV-1 antibodies [1]; [30]
  O.D. 450 nm: 1.248
HIV-1 antibodies [1]; [31]
  O.D. 450 nm: 0.680
HIV-1 antibodies [1]; [32]
  O.D. 450 nm: 0.366
HIV-1 antibodies [1]; [33]
  O.D. 450 nm: 0.198
HIV-1 antibodies [1]; [34]
  O.D. 450 nm: 0.116
HIV-1 antibodies [1]; [35]
  O.D. 450 nm: 0.056

## SGKLIC
HIV-1 antibodies [2]; Gnann et al. 1987, 22 HIV-1 positive sera tested
  immunoreactivity with HIV-1 positive sera: not immunoreactive

## SGKLICTTAVPWNAS [short synthetic peptide spanning residues 606 to 620 of gp41 (HIV-1)]
HIV-1 antibodies [2]; U.S. Ser. No. 120,027, 6 of 57 confirmed positive not detected
  sensitivity: 89%
HIV-1 antibodies [2]; U.S. Ser. No. 120,027
  specificity: 63/63
